# Legend:
# Assay in all cases: radiometric filter-binding kinase assay
# [1] = molecular target: STK3 (human) (UniProt Q13188)
# [2] = molecular target: PAK6 (human) (UniProt Q9NQU5)
# [3] = molecular target: SRC (human) (UniProt P12931)
# [4] = molecular target: MARK4 (human) (UniProt Q96L34)
# [5] = molecular target: CLK2 (human) (UniProt P49760)
# [6] = molecular target: PRKCZ (human) (UniProt Q05513)
# [7] = molecular target: DAPK1 (human) (UniProt P53355)
# [8] = molecular target: CHEK1 (human) (UniProt O14757)
# Chain of CHEK1 (human) (O14757 whole entry, looked up): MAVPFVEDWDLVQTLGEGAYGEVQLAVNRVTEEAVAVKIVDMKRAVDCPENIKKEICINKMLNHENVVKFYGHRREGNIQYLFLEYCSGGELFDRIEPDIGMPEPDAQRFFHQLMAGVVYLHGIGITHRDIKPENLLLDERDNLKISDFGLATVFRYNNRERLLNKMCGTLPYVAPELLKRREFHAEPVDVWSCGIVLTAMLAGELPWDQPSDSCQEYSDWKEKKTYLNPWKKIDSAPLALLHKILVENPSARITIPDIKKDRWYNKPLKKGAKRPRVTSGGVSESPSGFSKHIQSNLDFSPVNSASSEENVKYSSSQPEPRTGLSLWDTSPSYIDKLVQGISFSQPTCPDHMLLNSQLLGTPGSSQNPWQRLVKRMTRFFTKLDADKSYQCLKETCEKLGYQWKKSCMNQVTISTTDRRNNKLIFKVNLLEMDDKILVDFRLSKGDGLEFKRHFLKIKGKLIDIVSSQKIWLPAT
# [9] = molecular target: ERBB4 (human) (UniProt Q15303)
# [10] = molecular target: HIPK3 (human) (UniProt Q9H422)
# Chain of HIPK3 (human) (Q9H422 whole entry, looked up): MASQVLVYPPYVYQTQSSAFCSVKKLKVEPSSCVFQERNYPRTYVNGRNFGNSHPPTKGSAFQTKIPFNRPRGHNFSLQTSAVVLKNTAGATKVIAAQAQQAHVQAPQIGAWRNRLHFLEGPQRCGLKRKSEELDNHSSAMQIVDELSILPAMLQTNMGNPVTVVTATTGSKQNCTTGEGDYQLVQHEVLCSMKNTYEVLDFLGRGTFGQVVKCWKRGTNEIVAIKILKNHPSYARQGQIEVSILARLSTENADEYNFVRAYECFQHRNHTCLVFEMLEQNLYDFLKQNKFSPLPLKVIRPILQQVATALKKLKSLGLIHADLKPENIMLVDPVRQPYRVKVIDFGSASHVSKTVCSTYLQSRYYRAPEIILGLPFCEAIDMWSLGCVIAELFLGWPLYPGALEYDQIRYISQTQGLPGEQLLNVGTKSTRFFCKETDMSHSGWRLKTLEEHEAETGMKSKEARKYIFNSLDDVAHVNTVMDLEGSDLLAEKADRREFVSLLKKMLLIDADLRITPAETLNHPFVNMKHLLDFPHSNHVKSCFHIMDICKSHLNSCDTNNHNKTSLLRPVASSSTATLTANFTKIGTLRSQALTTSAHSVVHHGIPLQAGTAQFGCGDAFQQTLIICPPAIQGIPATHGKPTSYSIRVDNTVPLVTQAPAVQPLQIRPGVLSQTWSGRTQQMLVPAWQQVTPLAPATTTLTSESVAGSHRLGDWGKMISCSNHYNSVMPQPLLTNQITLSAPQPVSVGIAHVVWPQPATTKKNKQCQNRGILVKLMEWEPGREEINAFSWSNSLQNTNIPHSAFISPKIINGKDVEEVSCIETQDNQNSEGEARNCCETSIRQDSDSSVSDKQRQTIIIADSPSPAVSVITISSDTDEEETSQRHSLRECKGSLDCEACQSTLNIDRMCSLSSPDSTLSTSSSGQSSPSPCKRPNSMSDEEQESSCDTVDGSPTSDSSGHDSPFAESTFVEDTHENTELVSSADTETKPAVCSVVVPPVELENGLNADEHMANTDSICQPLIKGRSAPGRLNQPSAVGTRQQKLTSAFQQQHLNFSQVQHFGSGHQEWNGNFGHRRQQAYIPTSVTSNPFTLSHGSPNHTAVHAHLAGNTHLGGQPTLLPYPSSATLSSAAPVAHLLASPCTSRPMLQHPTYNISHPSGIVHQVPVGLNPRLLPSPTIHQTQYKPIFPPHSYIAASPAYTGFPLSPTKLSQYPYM
# [11] = molecular target: TAOK1 (human) (UniProt Q7L7X3)
# [12] = molecular target: RPS6KA5 KD1 KD2 (human) (UniProt O75582)
# Chain of RPS6KA5 KD1 KD2 (human) (O75582 whole entry, looked up): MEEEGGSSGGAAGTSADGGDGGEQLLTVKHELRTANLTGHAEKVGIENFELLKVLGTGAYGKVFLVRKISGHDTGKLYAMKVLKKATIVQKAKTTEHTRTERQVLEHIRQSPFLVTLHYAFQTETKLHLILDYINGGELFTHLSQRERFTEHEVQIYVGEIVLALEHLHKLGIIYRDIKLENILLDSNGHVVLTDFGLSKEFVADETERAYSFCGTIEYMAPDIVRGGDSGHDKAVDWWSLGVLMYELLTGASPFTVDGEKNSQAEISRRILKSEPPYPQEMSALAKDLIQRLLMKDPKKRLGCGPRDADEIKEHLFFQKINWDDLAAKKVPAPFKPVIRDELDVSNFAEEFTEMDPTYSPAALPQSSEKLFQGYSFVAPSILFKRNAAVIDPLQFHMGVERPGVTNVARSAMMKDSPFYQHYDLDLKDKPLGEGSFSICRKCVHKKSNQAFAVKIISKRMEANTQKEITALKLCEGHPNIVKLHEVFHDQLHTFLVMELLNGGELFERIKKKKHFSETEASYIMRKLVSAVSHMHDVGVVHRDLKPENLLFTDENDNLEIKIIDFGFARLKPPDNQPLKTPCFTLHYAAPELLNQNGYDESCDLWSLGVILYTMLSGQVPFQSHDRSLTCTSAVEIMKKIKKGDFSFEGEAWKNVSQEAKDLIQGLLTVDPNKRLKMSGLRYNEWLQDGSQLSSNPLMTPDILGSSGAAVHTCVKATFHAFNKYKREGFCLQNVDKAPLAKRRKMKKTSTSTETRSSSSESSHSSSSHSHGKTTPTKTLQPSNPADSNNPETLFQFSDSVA
# [13] = molecular target: MST4 (human) (UniProt Q9P289)
# [14] = molecular target: HIPK1 (human) (UniProt Q86Z02)
# [15] = molecular target: CHEK2 (human) (UniProt O96017)
# Chain of CHEK2 (human) (O96017 whole entry, looked up): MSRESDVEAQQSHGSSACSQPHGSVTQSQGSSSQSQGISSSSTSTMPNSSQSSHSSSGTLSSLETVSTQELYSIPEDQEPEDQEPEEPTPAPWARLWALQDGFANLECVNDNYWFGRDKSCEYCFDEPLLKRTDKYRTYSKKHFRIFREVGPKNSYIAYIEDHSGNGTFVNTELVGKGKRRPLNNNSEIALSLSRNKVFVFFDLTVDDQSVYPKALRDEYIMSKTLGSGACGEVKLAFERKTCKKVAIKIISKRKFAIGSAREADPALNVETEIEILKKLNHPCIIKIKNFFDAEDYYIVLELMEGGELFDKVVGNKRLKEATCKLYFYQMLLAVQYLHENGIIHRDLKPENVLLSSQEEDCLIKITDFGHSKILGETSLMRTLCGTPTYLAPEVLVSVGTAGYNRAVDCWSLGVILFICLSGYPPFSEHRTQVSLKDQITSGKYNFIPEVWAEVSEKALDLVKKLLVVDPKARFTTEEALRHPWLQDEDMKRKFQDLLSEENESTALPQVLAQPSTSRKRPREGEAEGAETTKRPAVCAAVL
# [16] = molecular target: PRKCA (human) (UniProt P17252)
# [17] = molecular target: AURKA (human) (UniProt O14965)
# [18] = molecular target: MAP3K5 (human) (UniProt Q99683)
# [19] = molecular target: GCK (human) (UniProt Q12851)
# [20] = molecular target: EEF2K (human) (UniProt O00418)
# [21] = molecular target: MARK3 (human) (UniProt P27448)
# [22] = molecular target: BRSK2 (human) (UniProt Q8IWQ3)
# [23] = molecular target: MAPK3 (human) (UniProt P27361)
# Chain of MAPK3 (human) (P27361 whole entry, looked up): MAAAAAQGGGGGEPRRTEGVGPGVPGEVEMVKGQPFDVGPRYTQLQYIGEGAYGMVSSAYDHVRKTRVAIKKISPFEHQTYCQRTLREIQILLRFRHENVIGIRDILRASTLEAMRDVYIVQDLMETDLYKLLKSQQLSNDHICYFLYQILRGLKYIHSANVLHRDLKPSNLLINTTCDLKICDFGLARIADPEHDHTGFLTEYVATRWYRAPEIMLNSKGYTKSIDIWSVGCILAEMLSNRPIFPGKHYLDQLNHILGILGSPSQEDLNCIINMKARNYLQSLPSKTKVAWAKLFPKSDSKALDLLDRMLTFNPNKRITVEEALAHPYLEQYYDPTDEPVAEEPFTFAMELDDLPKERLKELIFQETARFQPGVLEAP
# [24] = molecular target: MAPK1 (human) (UniProt P28482)
# [25] = molecular target: RPS6KA1 KD1 KD2 (human) (UniProt Q15418)
# Chain of RPS6KA1 KD1 KD2 (human) (Q15418 whole entry, looked up): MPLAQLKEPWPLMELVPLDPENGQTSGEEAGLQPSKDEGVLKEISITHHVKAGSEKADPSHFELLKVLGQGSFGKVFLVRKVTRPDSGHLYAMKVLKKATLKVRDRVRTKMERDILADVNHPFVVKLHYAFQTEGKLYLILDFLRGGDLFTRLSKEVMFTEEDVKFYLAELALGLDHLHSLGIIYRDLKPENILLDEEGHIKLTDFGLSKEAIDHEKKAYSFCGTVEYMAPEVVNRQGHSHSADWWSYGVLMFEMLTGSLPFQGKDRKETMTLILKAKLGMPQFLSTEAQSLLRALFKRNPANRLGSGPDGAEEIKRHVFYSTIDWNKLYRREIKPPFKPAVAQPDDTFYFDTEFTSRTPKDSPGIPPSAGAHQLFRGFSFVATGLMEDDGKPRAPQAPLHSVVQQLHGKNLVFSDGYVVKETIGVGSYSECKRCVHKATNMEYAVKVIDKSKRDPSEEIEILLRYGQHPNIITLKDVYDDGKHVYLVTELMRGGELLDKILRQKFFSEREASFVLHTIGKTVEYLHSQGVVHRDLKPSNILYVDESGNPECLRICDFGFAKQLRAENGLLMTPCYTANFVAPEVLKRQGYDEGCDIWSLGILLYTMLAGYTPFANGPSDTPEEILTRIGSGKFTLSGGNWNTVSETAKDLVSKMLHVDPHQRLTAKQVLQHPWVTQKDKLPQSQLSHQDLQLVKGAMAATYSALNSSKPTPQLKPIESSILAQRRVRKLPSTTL
# [26] = molecular target: RPS6KA3 KD1 KD2 (human) (UniProt P51812)
# [27] = molecular target: NUAK1 (human) (UniProt O60285)
# Chain of NUAK1 (human) (O60285 whole entry, looked up): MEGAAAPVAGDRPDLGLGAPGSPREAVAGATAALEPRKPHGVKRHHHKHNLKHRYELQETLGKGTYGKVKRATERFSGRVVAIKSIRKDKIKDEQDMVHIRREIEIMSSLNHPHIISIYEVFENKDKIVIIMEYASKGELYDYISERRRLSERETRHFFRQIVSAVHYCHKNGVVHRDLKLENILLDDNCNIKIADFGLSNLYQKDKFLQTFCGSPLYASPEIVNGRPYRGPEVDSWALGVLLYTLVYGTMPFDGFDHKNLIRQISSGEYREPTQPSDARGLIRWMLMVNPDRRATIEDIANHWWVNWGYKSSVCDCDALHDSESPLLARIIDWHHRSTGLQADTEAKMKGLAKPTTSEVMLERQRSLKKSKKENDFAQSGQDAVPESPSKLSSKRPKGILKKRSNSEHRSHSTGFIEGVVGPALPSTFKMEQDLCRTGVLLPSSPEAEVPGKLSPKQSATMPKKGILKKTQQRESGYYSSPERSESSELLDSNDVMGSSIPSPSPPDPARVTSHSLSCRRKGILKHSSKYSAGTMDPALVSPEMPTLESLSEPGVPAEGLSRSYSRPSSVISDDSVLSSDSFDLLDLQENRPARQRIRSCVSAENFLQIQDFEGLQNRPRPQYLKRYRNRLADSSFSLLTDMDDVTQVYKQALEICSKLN
# [28] = molecular target: FLT1 (human) (UniProt P17948)
# [29] = molecular target: MAP3K1 (human) (UniProt Q13233)
# [30] = molecular target: CDK2 CCNA2 (human) (UniProt P20248+P24941)
# [31] = molecular target: EPHB4 (human) (UniProt P54760)
# [32] = system: SGK1 (human), O00141 [S422D]
# [33] = molecular target: NTRK1 (human) (UniProt P04629)
# [34] = molecular target: JAK2 JH1 JH2 (human) (UniProt O60674)
# [35] = molecular target: PLK1 (human) (UniProt P53350)
smiles,measurement,setting,value
Cc1ccc(Sc2cnc(Nc3cccc(Br)n3)s2)cc1C(=O)N1CCN(C(=O)CN)CC1,residual activity,[1]; compound 0.1 µM,16%
same,residual activity,[1]; compound 1.0 µM,19%
same,residual activity,[1]; compound 10.0 µM,3%
same,residual activity,[2]; compound 0.1 µM,71%
same,residual activity,[2]; compound 1.0 µM,72%
same,residual activity,[2]; compound 10.0 µM,27%
same,residual activity,[3]; compound 0.1 µM,22%
same,residual activity,[3]; compound 1.0 µM,20%
same,residual activity,[3]; compound 10.0 µM,2%
same,residual activity,[4]; compound 0.1 µM,101%
same,residual activity,[4]; compound 1.0 µM,118%
same,residual activity,[4]; compound 10.0 µM,43%
same,residual activity,[5]; compound 0.1 µM,3%
same,residual activity,[5]; compound 1.0 µM,3%
same,residual activity,[5]; compound 10.0 µM,1%
same,residual activity,[6]; compound 0.1 µM,104%
same,residual activity,[6]; compound 1.0 µM,98%
same,residual activity,[6]; compound 10.0 µM,58%
same,residual activity,[7]; compound 0.1 µM,99%
same,residual activity,[7]; compound 1.0 µM,96%
same,residual activity,[7]; compound 10.0 µM,63%
same,residual activity,[8]; compound 0.1 µM,54%
same,residual activity,[8]; compound 1.0 µM,53%
same,residual activity,[8]; compound 10.0 µM,52%
same,residual activity,[9]; compound 0.1 µM,69%
same,residual activity,[9]; compound 1.0 µM,64%
same,residual activity,[9]; compound 10.0 µM,51%
same,residual activity,[10]; compound 0.1 µM,30%
same,residual activity,[10]; compound 1.0 µM,31%
same,residual activity,[10]; compound 10.0 µM,17%
same,residual activity,[11]; compound 0.1 µM,42%
same,residual activity,[11]; compound 1.0 µM,33%
same,residual activity,[12]; compound 0.1 µM,59%
same,residual activity,[12]; compound 1.0 µM,51%
same,residual activity,[12]; compound 10.0 µM,22%
same,residual activity,[13]; compound 0.1 µM,50%
same,residual activity,[13]; compound 1.0 µM,50%
same,residual activity,[13]; compound 10.0 µM,17%
same,residual activity,[14]; compound 0.1 µM,45%
same,residual activity,[14]; compound 1.0 µM,42%
same,residual activity,[14]; compound 10.0 µM,5%
same,residual activity,[15]; compound 0.1 µM,20%
same,residual activity,[15]; compound 1.0 µM,18%
same,residual activity,[15]; compound 10.0 µM,4%
same,residual activity,[16]; compound 0.1 µM,41%
same,residual activity,[16]; compound 1.0 µM,45%
same,residual activity,[16]; compound 10.0 µM,11%
same,residual activity,[17]; compound 0.1 µM,3%
same,residual activity,[17]; compound 1.0 µM,3%
same,residual activity,[17]; compound 10.0 µM,0%
same,residual activity,[18]; compound 0.1 µM,106%
same,residual activity,[18]; compound 1.0 µM,101%
same,residual activity,[19]; compound 0.1 µM,101%
same,residual activity,[19]; compound 1.0 µM,93%
same,residual activity,[19]; compound 10.0 µM,33%
same,residual activity,[20]; compound 0.1 µM,113%
same,residual activity,[20]; compound 1.0 µM,96%
same,residual activity,[20]; compound 10.0 µM,92%
same,residual activity,[21]; compound 0.1 µM,103%
same,residual activity,[21]; compound 1.0 µM,89%
same,residual activity,[21]; compound 10.0 µM,57%
same,residual activity,[22]; compound 0.1 µM,88%
same,residual activity,[22]; compound 1.0 µM,80%
same,residual activity,[22]; compound 10.0 µM,40%
same,residual activity,[23]; compound 0.1 µM,103%
same,residual activity,[23]; compound 1.0 µM,78%
same,residual activity,[23]; compound 10.0 µM,99%
same,residual activity,[24]; compound 0.1 µM,99%
same,residual activity,[24]; compound 1.0 µM,103%
same,residual activity,[24]; compound 10.0 µM,85%
same,residual activity,[25]; compound 0.1 µM,31%
same,residual activity,[25]; compound 1.0 µM,29%
same,residual activity,[25]; compound 10.0 µM,6%
same,residual activity,[26]; compound 0.1 µM,67%
same,residual activity,[26]; compound 1.0 µM,64%
same,residual activity,[26]; compound 10.0 µM,18%
same,residual activity,[27]; compound 0.1 µM,40%
same,residual activity,[27]; compound 1.0 µM,37%
same,residual activity,[27]; compound 10.0 µM,7%
same,residual activity,[28]; compound 0.1 µM,56%
same,residual activity,[28]; compound 1.0 µM,52%
same,residual activity,[28]; compound 10.0 µM,19%
same,residual activity,[29]; compound 0.1 µM,46%
same,residual activity,[29]; compound 1.0 µM,35%
same,residual activity,[29]; compound 10.0 µM,5%
same,residual activity,[30]; compound 0.1 µM,35%
same,residual activity,[30]; compound 1.0 µM,15%
same,residual activity,[30]; compound 10.0 µM,3%
same,residual activity,[31]; compound 0.1 µM,15%
same,residual activity,[31]; compound 1.0 µM,13%
same,residual activity,[31]; compound 10.0 µM,4%
same,residual activity,[32]; compound 0.1 µM,89%
same,residual activity,[32]; compound 1.0 µM,90%
same,residual activity,[32]; compound 10.0 µM,41%
same,residual activity,[33]; compound 0.1 µM,14%
same,residual activity,[33]; compound 1.0 µM,19%
same,residual activity,[33]; compound 10.0 µM,4%
same,residual activity,[34]; compound 0.1 µM,84%
same,residual activity,[34]; compound 1.0 µM,80%
same,residual activity,[34]; compound 10.0 µM,30%
same,residual activity,[35]; compound 0.1 µM,97%
same,residual activity,[35]; compound 1.0 µM,85%
same,residual activity,[35]; compound 10.0 µM,114%

# From the kinase profiling compilation of Christmann-Franck et al. (2016)
